The source of these data is patent publication US20240150365A1 (Hotspot Therapeutics, Inc., priority 2022, published 2024).

A value given as a limit tells only on which side of the number the result lay.

Assay [1] concerns NF-kB. The assay can be described thus: NF-kB reporter assay in Jurkat cells stimulated with aCD3/aCD28/PMA. It is filed as cell-based. As to conditions: Homo sapiens, Jurkat, Jurkat cells, 1 hr compound incubation, aCD3/aCD28/PMA stimulation 4 hr, One-Glo readout; read-out: NF-kB Reporter Assay IC50. In short, it runs like this:
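Jurkat cells (25,000/well, serum-free RPMI 1640) preincubated 1 hr at 37° C with serially diluted compound, then stimulated with aCD3/aCD28/PMA (final 5 μg/mL, 5 μg/mL, 0.03 μg/mL) for 4 hr. Reporter luminescence read with One-Glo; IC50 derived.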
On the technique in general: A reporter such as luciferase makes a cellular process visible.

The target of assay [2] is T1, MALT1 (Homo sapiens, UniProt Q9UDY8).
T1 construct: Avi-tagged FL MALT-1 (Pharmaron, stored at −70° C.); Avi tag
T1 sequence (Q9UDY8 1-824): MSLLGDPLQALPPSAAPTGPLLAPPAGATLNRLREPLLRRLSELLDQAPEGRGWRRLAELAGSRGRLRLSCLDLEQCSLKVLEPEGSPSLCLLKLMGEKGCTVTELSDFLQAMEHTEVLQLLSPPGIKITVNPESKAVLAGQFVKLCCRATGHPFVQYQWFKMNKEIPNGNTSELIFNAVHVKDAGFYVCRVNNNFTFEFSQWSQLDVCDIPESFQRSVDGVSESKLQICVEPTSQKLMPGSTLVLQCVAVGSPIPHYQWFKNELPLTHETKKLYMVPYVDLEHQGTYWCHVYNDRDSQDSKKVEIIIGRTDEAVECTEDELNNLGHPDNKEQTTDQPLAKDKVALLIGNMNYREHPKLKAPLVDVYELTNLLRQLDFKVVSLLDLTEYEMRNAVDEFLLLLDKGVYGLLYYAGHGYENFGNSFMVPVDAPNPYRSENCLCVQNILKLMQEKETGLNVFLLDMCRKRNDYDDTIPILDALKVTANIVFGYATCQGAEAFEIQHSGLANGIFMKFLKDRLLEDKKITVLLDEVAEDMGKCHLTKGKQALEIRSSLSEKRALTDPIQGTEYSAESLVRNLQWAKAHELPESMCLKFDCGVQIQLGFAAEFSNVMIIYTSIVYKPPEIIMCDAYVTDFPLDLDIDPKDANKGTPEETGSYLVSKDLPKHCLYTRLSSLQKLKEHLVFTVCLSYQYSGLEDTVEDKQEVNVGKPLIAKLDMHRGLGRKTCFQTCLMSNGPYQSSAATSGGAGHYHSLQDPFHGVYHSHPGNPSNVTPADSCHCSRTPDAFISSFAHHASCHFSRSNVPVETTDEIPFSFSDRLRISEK
The assay can be described thus: MALT-1 Fluorogenic Peptide Cleavage Assay (MALT1 inhibition assay). In kind it is biochemical. As to conditions: Avi-tagged FL MALT-1, Ac-LRSR-AMC peptide substrate, 30 min pre-incubation, 90 min reaction. In short, it runs like this:
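Avi-tagged full-length MALT1 pre-incubated 30 min with compound (2% DMSO final), then cleavage of Ac-LRSR-AMC followed over 90 min at room temperature. AMC fluorescence read at 342/441 nm; % inhibition fitted to sigmoidal curves for IC50.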

The IC50 is the point on the concentration scale where inhibition reaches its midpoint. In the case of `COc1ccc2ccn(C)c2c1NS(=O)(=O)c1ccc(-n2cc(C(F)(F)F)cn2)nc1` [Example I-188, N-(6-methoxy-1-methyl-1H-indol-7-yl)-6-(4-(trifluoromethyl)-1H-pyrazol-1-yl)pyridine-3-sulfonamide], the IC50 in assay [1] and in assay [2] was less than 0.4 µM each time.

In the case of `Cc1ncc2cnn(C)c2c1NS(=O)(=O)c1ccc(-n2cc(C(F)(F)F)cn2)nc1` [Example I-189, N-(1,6-dimethyl-1H-pyrazolo[4,3-c]pyridin-7-yl)-6-(4-(trifluoromethyl)-1H-pyrazol-1-yl)pyridine-3-sulfonamide], the half-inhibitory concentration (IC50) in assay [1] and in assay [2] was 1 to 2.5 µM each time.

As for `Cn1[nH]c2cccc(NS(=O)(=O)c3ccc(-n4cc(C(F)(F)F)cn4)nc3)c2c1=O` [Example I-190, N-(2-methyl-3-oxo-2,3-dihydro-1H-indazol-4-yl)-6-(4-(trifluoromethyl)-1H-pyrazol-1-yl)pyridine-3-sulfonamide], the IC50 in assay [1] and in assay [2] was more than 2.5 µM throughout.

For the molecule `COc1ccc2cnn(C)c2c1NS(=O)(=O)c1ccc(-n2cc(C(C)(F)F)cn2)nc1` [Example I-191, 6-(4-(1,1-difluoroethyl)-1H-pyrazol-1-yl)-N-(6-methoxy-1-methyl-1H-indazol-7-yl)pyridine-3-sulfonamide], the IC50 in assay [1] and in assay [2] was less than 0.4 µM in each case.

Turning to `COc1ncc2cnn(C)c2c1NS(=O)(=O)c1ccc(-n2cc(C(F)F)cn2)nc1` [Example I-192, 6-(4-(difluoromethyl)-1H-pyrazol-1-yl)-N-(6-methoxy-1-methyl-1H-pyrazolo[4,3-c]pyridin-7-yl)pyridine-3-sulfonamide], the IC50 in assay [1] and in assay [2] was less than 0.4 µM in each case.

For the molecule `COc1ncc2cnn(C)c2c1NS(=O)(=O)c1ccc(-n2cc(F)cn2)nc1` [Example I-193, 6-(4-fluoro-1H-pyrazol-1-yl)-N-(6-methoxy-1-methyl-1H-pyrazolo[4,3-c]pyridin-7-yl)pyridine-3-sulfonamide], the IC50 in assay [1] and in assay [2] was less than 0.4 µM each time.

For the molecule `COc1ncc2cnn(C)c2c1NS(=O)(=O)c1ccc(-n2cc(C(C)C)cn2)nc1` [Example I-194, 6-(4-isopropyl-1H-pyrazol-1-yl)-N-(6-methoxy-1-methyl-1H-pyrazolo[4,3-c]pyridin-7-yl)pyridine-3-sulfonamide], the IC50 in assay [1] and in assay [2] was less than 0.4 µM throughout.

Turning to `COc1ncc2cnn(C)c2c1N(C)S(=O)(=O)c1ccc(-n2ccc(C(F)(F)F)n2)nc1` [Example I-195, N-(6-Methoxy-1-Methyl-1H-Pyrazolo[4,3-C]Pyridin-7-yl)-N-Methyl-6-(3-(Trifluoromethyl)-1H-Pyrazol-1-yl)Pyridine-3-Sulfonamide], the IC50 in assay [1] and in assay [2] was less than 0.4 µM throughout.

Consider `COc1ncc2cnn(C)c2c1NS(=O)(=O)c1ccc(-n2ccc(C)n2)nc1` [Example I-197, N-{6-methoxy-1-methylpyrazolo[4,3-c]pyridin-7-yl}-6-(3-methylpyrazol-1-yl)pyridine-3-sulfonamide], for which the IC50 in assay [1] and in assay [2] was less than 0.4 µM in each case.

As to `Cn1[nH]c(=O)c2c(NS(=O)(=O)c3ccc(-n4cc(C(F)(F)F)cn4)nc3)cccc21` [Example I-198, N-(1-methyl-3-oxo-2,3-dihydro-1H-indazol-4-yl)-6-(4-(trifluoromethyl)-1H-pyrazol-1-yl)pyridine-3-sulfonamide], the IC50 in assay [1] was 1 to 2.5 µM; in assay [2] it was more than 2.5 µM.

For the molecule `Cc1ncc2cccc(NS(=O)(=O)c3ccc(-n4cc(C(F)(F)F)cn4)nc3)n12` [Example I-199, N-(3-methylimidazo[1,5-a]pyridin-5-yl)-6-(4-(trifluoromethyl)-1H-pyrazol-1-yl)pyridine-3-sulfonamide], the IC50 in assay [1] was 1 to 2.5 µM; in assay [2], more than 2.5 µM.

Take `COc1ncc2cnn(C)c2c1NS(=O)(=O)c1ccc(-c2cc(C(F)(F)F)n[nH]2)nc1` [Example I-200, N-(6-Methoxy-1-Methyl-1H-Pyrazolo[4,3-C]Pyridin-7-yl)-6-(3-(Trifluoromethyl)-1H-Pyrazol-5-yl)Pyridine-3-Sulfonamide]: the IC50 in assay [1] and in assay [2] was less than 0.4 µM throughout.

For the molecule `Cn1[nH]c(=O)c2cccc(NS(=O)(=O)c3ccc(-n4cc(C(F)(F)F)cn4)nc3)c21` [Example I-201, N-(1-Methyl-3-Oxo-2,3-Dihydro-1H-Indazol-7-yl)-6-(4-(Trifluoromethyl)-1H-Pyrazol-1-yl)Pyridine-3-Sulfonamide], the half-maximal inhibitory concentration (IC50) in assay [1] and in assay [2] was more than 2.5 µM each time.

Regarding `COc1ccc2cnn(C)c2c1NS(=O)(=O)c1ccc(-n2cc(C)n(C)c2=O)nc1` [Example I-202, 6-(3,4-Dimethyl-2-Oxo-2,3-Dihydro-1H-Imidazol-1-yl)-N-(6-Methoxy-1-Methyl-1H-Indazol-7-yl)Pyridine-3-Sulfonamide], the 50% inhibitory concentration (IC50) was less than 0.4 µM in assay [1] and 0.4 to 1 µM in assay [2].

For `COc1ccc(Cc2ccc3c(c2N)c(=O)n(S(=O)(=O)c2ccc(-n4cc(C(F)(F)F)cn4)nc2)n3C)cc1` [Example I-203], the IC50 in assay [1] was less than 0.4 µM; in assay [2], more than 2.5 µM.

Consider `COc1ncc2cnn(C)c2c1NS(=O)(=O)c1ccc(-c2cc(C(F)F)n[nH]2)nc1` [Example I-204, 6-(3-(Difluoromethyl)-1H-Pyrazol-5-yl)-N-(6-Methoxy-1-Methyl-1H-Pyrazolo[4,3-C]Pyridin-7-yl)Pyridine-3-Sulfonamide], for which the IC50 is 1 to 2.5 µM in assay [1] and less than 0.4 µM in assay [2].

Turning to `COc1ncc2cnn(C)c2c1NS(=O)(=O)c1ccc(-c2cc(C3CC3)n[nH]2)nc1` [Example I-205, 6-(3-Cyclopropyl-1H-Pyrazol-5-yl)-N-(6-Methoxy-1-Methyl-1H-Pyrazolo[4,3-C]Pyridin-7-yl)Pyridine-3-Sulfonamide], the IC50 in assay [1] and in assay [2] was 1 to 2.5 µM throughout.

For the molecule `[2H]C([2H])([2H])n1ncc2ccc(OC)c(NS(=O)(=O)c3ccc(-n4cc(C)cn4)nc3)c21` [Example I-206, N-(6-Methoxy-1-(Methyl-D3)-1H-Indazol-7-yl)-6-(4-Methyl-1H-Pyrazol-1-yl)Pyridine-3-Sulfonamide], the IC50 in assay [1] and in assay [2] was less than 0.4 µM in each case.

For the molecule `Cn1ncc2cccc(NS(=O)(=O)c3ccc(-n4ccc(C5CC5)n4)nc3)c21` [Example I-207, 6-(3-Cyclopropyl-1H-Pyrazol-1-yl)-N-(1-Methyl-1H-Indazol-7-yl)Pyridine-3-Sulfonamide], the IC50 in assay [1] is less than 0.4 µM; in assay [2], 1 to 2.5 µM.

`Cn1ncc2cccc(NS(=O)(=O)c3ccc(-n4cc(C5CC5)cn4)nc3)c21` [Example I-208, 6-(4-Cyclopropyl-1H-Pyrazol-1-yl)-N-(1-Methyl-1H-Indazol-7-yl)Pyridine-3-Sulfonamide]: the IC50 in assay [1] was less than 0.4 µM; in assay [2], 1 to 2.5 µM.

For `Cn1ccn(-c2ccc(S(=O)(=O)Nc3cccc4cnn(C)c34)cn2)c1=O` [Example I-209, N-(1-Methyl-1H-Indazol-7-yl)-6-(3-Methyl-2-Oxo-2,3-Dihydro-1H-Imidazol-1-yl)Pyridine-3-Sulfonamide], the IC50 is less than 0.4 µM in assay [1] and more than 2.5 µM in assay [2].

With `COc1ccc(-c2ccc(S(=O)(=O)Nc3cccc4cnn(C)c34)cn2)cn1` [Example I-210, 6′-Methoxy-N-(1-Methyl-1H-Indazol-7-yl)-[2,3′-Bipyridine]-5-Sulfonamide], the IC50 in assay [1] was less than 0.4 µM; in assay [2], more than 2.5 µM.
